Where two headings read alike, the source gives them in different places.
Assays:
[1] = target: T1, human recombinant adrenergic α2B receptor (Homo sapiens, UniProt P18089); assay: Radioligand binding, adrenergic α2B ([3H]Rauwolscine); details: 0.1 μM compound; for inhibition at 0.1 µM: read-out: Percentage inhibition of ligand binding, Adrenergic α2B
T1 construct: expressed in transfected cells; host or cells: CHO-K1
T1 sequence (P18089 1-450): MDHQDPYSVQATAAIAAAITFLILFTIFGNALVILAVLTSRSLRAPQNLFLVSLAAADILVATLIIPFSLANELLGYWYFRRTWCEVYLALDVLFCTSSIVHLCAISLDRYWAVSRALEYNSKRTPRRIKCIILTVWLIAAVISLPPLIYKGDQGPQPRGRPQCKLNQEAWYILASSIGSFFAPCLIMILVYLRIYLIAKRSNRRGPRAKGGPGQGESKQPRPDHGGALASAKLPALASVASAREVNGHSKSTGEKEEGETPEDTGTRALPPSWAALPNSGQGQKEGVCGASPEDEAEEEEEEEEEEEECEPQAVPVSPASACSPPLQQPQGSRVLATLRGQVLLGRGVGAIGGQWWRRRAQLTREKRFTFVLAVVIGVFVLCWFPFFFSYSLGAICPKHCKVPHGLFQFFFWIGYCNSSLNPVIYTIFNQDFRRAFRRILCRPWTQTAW
In short: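 Membranes from CHO-K1 cells expressing human recombinant α2B, in 50 mM Tris-HCl pH 7.4, 12.5 mM MgCl2, 1 mM EDTA, 0.2% BSA, incubated with compound and 2.5 nM [3H]Rauwolscine, 60 min, 25 °C.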

[2] = target: T2, human recombinant adrenergic α2A receptor (Homo sapiens, UniProt P08913); assay: Radioligand binding, adrenergic α2A ([3H]MK-912); details: 0.1 μM compound; for inhibition at 0.1 µM: read-out: Percentage inhibition of ligand binding, Adrenergic α2A
T2 construct: expressed in transfected cells; host or cells: insect Sf9 cells
T2 sequence (P08913 1-465): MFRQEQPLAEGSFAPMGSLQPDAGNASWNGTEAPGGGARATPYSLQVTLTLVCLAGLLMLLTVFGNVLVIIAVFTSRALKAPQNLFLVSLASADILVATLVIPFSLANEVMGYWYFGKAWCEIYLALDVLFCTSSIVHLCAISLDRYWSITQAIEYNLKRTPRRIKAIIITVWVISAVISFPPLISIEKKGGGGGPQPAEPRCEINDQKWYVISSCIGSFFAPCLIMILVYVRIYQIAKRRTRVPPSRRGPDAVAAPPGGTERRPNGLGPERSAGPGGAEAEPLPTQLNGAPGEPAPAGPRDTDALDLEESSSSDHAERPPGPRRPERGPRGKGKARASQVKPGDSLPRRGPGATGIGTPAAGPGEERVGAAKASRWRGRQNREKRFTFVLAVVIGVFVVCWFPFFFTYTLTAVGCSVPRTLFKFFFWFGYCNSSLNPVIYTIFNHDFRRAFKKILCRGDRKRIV
In short: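 Receptor expressed in insect Sf9 cells, assayed in 50 mM Tris-HCl pH 7.4 with 12.5 mM MgCl2 and 2 mM EDTA. Compounds incubated with 1 nM [3H]MK-912 for 60 min at 25 °C; nonspecific binding defined with 10 μM WB-4101. Filter-bound radioactivity counted; values are percent inhibition of specific binding.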

[3] = target: T3, rat adrenergic α1B receptor (Rattus norvegicus, UniProt P15823); assay: Radioligand binding, adrenergic α1B ([3H]Prazosin); details: 0.1 μM compound; for inhibition at 0.1 µM: read-out: Percentage inhibition of ligand binding, Adrenergic α1B
T3 construct: rat adrenergic α1B receptor obtained from Wistar Rat liver; from tissue; host or cells: Wistar rat liver
T3 sequence (P15823 1-515): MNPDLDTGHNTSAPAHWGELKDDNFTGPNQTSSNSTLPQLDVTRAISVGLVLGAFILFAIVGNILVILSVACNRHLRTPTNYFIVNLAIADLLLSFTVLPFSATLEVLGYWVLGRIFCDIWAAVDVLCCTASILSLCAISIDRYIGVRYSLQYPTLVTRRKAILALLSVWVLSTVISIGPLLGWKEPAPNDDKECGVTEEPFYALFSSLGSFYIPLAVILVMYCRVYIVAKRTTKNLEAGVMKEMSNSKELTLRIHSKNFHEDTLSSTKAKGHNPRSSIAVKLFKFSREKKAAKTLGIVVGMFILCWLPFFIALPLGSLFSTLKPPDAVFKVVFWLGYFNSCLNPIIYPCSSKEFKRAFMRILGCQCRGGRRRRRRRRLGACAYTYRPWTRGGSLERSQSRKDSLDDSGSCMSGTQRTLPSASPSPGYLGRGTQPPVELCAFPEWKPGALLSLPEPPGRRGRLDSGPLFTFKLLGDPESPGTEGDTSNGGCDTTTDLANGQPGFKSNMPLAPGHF
In short: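 Filter binding with Wistar rat liver α1B preparation: test compound plus 0.25 nM [3H]prazosin, 1 h at 25° C in modified Tris-HCl buffer pH 7.4.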

[4] = target: T4, human recombinant adrenergic α1D receptor (Homo sapiens, UniProt P25100); assay: Radioligand binding, adrenergic α1D ([3H]Prazosin); details: for Percentage inhibition of ligand binding, Adrenergic α1D: 0.1 µM; for inhibition at 0.1 µM: read-out: Percentage inhibition of ligand binding, Adrenergic α1D
T4 construct: expressed in transfected cells; host or cells: HEK-293
T4 sequence (P25100 1-572): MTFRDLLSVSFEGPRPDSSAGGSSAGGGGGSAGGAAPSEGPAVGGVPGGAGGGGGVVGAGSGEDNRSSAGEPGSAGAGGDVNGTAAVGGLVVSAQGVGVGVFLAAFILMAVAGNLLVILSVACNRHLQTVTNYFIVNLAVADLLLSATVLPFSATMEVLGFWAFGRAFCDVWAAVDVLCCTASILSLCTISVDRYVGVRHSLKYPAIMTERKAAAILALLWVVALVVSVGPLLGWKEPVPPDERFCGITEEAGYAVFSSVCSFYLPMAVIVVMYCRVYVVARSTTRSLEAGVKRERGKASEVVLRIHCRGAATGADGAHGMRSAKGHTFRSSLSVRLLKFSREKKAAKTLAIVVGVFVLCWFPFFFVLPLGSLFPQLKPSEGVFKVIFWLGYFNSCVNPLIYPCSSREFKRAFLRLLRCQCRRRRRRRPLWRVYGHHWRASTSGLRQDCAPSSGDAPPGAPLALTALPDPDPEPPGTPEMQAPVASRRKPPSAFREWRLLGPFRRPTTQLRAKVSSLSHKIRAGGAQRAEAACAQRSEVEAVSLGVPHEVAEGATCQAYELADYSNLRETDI
Procedure: Compounds were incubated with 0.6 nM [3H]Prazosin for 60 min at 25° C. Non-specific binding was estimated in the presence of 10 μM phentolamine. Receptor proteins were filtered and washed, the filters were then counted to determine [3H]Prazosin specifically bound. […] Biochemical assay results are presented as the percent inhibition of specific binding in Table B1.

Row | SMILES | Percentage inhibition of ligand binding, Adrenergic α2A ([2]; 0.1 µM) | Percentage inhibition of ligand binding, Adrenergic α1D ([4]; 0.1 μM compound) | Percentage inhibition of ligand binding, Adrenergic α1B ([3]; 0.1 µM) | other results
1 | Cc1ccc2c(c1)c1c(n2CC(C)c2ccc(C)nc2)CCN(C)C1 (single isomer, unassigned) [289a] |  | 57% | 51% | inhibition at 0.1 µM [2]: 60%
2 | Cc1ccc2c(c1)c1c(n2CC(C)c2ccc(C)nc2)CCN(C)C1 (single isomer, unassigned) [289b] | 53% | −2% | 12% | Percentage inhibition of ligand binding, Adrenergic α2B [1]: 54%
3 | CCCCC(O)(Cn1c2c(c3cc(Cl)ccc31)CN(C)CC2)c1ccc(F)cc1 (stereo not drawn) [33a] |  |  |  | inhibition at 0.1 µM ([4]; compound at 0.1 μM, [3H]Prazosin, repeat assays, each datapoint shown): 23%
4 | COc1ccc(C(C)(O)Cn2c3c(c4cc(C)ccc42)CN(C)CC3)cc1 (stereo not drawn) [254a] |  |  |  | inhibition at 0.1 µM [1]: 85%; inhibition at 0.1 µM [2]: 58%; inhibition at 0.1 µM [3]: 75%; inhibition at 0.1 µM ([4]; 0.1 μM compound): 36%

Continued, in another order:

Row | Percentage inhibition of ligand binding, Adrenergic α2A ([2]; 0.1 µM) | Percentage inhibition of ligand binding, Adrenergic α1D ([4]; 0.1 μM compound) | Percentage inhibition of ligand binding, Adrenergic α1B ([3]; 0.1 µM) | SMILES | other results
5 | 33% | 12% |  | CC(Cn1c2c(c3ccccc31)CN(C)CC2)c1ccc(F)cc1 (single isomer, unassigned) [272a] | Percentage inhibition of ligand binding, Adrenergic α2B [1]: −10%; inhibition at 0.1 µM [3]: 27%
6 | 68% | 36% | 30% | CC(Cn1c2c(c3ccccc31)CN(C)CC2)c1ccc(F)cc1 (single isomer, unassigned) [272b] | 
7 |  | 88% |  | Cc1ccc2c(c1)c1c(n2CC(C)c2ccc(F)cc2)CCN(C)C1 (single isomer, unassigned) [288a] | inhibition at 0.1 µM [1]: 104%
8 |  | 17% |  | Cc1ccc2c(c1)c1c(n2CC(C)c2ccc(F)cc2)CCN(C)C1 (single isomer, unassigned) [288b] | Percentage inhibition of ligand binding, Adrenergic α2A [2]: 67%; Percentage inhibition of ligand binding, Adrenergic α1B [3]: 39%

Source: patent US8791132B2, “Compounds and methods for treatment of hypertension” (Medivation Technologies, Inc., priority 2011, dated 2014)
